Literature values as cited in patent publication US6955766B2, “Method for reducing harmful organisms in currents of water” (priority 1999, dated 2005).

Tested on: zebra mussels
Details: batchwise treatment of water

CC(=O)OO [peroxyacetic acid]
concentration necessary to achieve an acceptable mortality rate of the mussels in a sufficiently short time: ≥ 10 mg/L
